Experimental data: ChEMBL document CHEMBL1121784, “Quantitative structure-activity relationships by distance geometry: thyroxine binding site” (J Med Chem, 1981)

The compounds below were run against Transthyretin (Homo sapiens) (UniProt P02766) (assay: Binding affinity against prealbumin).

First: CCc1cc(C)c(Oc2c(I)c(C)c(CC(N)C(=O)O)c(C)c2I)c(C)c1C(C)C (stereo unspecified)
Second: CCc1cc(C)c(Oc2c(I)c(C)c(CC(N)C(=O)O)c(C)c2I)c(C)c1C(C)CC (stereo unspecified)
The Delta G of the first is higher: -7.8 kcal/M for the first, -9 kcal/M for the second.

First: CCc1cc(C)c(Oc2c(I)c(C)c(CC(N)C(=O)O)c(C)c2I)c(C)c1Cl (stereo unspecified)
Second: CCc1cc(C)c(Oc2c(I)c(C)c(CC(N)C(=O)O)c(C)c2I)c(C)c1Br (stereo unspecified)
The Delta G of the first is higher: -7.7 kcal/M for the first, -8.2 kcal/M for the second.

Compared with `CCc1c(I)c(C)c(Oc2c(I)c(C)c(CCN)c(C)c2I)c(C)c1I`, `CCc1c(I)c(C)c(Oc2c(I)c(C)c(CCC(=O)O)c(C)c2I)c(C)c1I` is lower in Delta G: -9.7 kcal/M for the first, -11.4 kcal/M for the second.

Compared with `CCc1cc(C)c(Oc2cc(C)c(CC(N)C(=O)O)c(C)c2I)c(C)c1I` (stereo unspecified), `CCc1cc(C)c(Oc2c(I)c(C)c(CC(N)C(=O)O)c(C)c2I)c(C)c1I` (stereo in doubt; 21) is higher in Delta G: -7.6 kcal/M for the first, -7 kcal/M for the second.

First: CCc1c(I)c(C)c(Oc2c(I)c(C)c(CC(=O)O)c(C)c2I)c(C)c1I
Second: CCc1c(I)c(C)c(Oc2c(I)c(C)c(CCCC(=O)O)c(C)c2I)c(C)c1I
The Delta G of the first is lower: -11.9 kcal/M for the first, -11.3 kcal/M for the second.

First: CCc1c(I)c(C)c(Oc2c(I)c(C)c(CC(N)C(=O)O)c(C)c2I)c(C)c1I (stereo in doubt; 2)
Second: CCc1c(I)c(C)c(Oc2c(I)c(C)c(C(=O)O)c(C)c2I)c(C)c1I
The Delta G of the first is higher: -10.7 kcal/M for the first, -11.1 kcal/M for the second.

Going from `CCc1c(C)c(C)c(Oc2c(I)c(C)c(CC(N)C(=O)O)c(C)c2I)c(C)c1C` (stereo unspecified) to `CCc1c(I)c(C)c(Oc2c(C)c(C)c(CC(N)C(=O)O)c(C)c2C)c(C)c1I` (stereo unspecified), the Delta G falls from -6.6 kcal/M to -7.7 kcal/M.

First: CCCc1c(CC)cc(C)c(Oc2c(I)c(C)c(CC(N)C(=O)O)c(C)c2I)c1C (stereo unspecified)
Second: CCc1cc(C)c(Oc2c(I)c(C)c(CC(N)C(=O)O)c(C)c2I)c(C)c1CC(C)C (stereo unspecified)
The Delta G of the first is higher: -7.6 kcal/M for the first, -8.4 kcal/M for the second.

First: CCc1cc(C)c(Oc2c(I)c(C)c(CC(N)C(=O)O)c(C)c2I)c(C)c1C (stereo unspecified)
Second: CCc1cc(C)c(Oc2c(I)c(C)c(CC(N)C(=O)O)c(C)c2I)c(C)c1I (stereo in doubt; 1)
The Delta G of the first is higher: -7.4 kcal/M for the first, -9.2 kcal/M for the second.

Going from `CCc1cc(C)c(Oc2c(C)c(C)c(CC(N)C(=O)O)c(C)c2C)c(C)c1I` (stereo unspecified) to `CCc1cc(C)c(Oc2c(I)c(C)c(CC(N)C(=O)O)c(C)c2I)c(C)c1C(C)(C)C` (stereo unspecified), the Delta G falls from -7.8 kcal/M to -8 kcal/M.

Compared with `CCc1c(I)c(C)c(Oc2cc(C)c(CC(N)C(=O)O)c(C)c2I)c(C)c1I` (stereo unspecified), `CCc1c(I)c(C)c(Oc2c(I)c(C)c(CC(N)C(=O)O)c(C)c2I)c(C)c1I` (stereo in doubt; 26) is higher in Delta G: -10 kcal/M for the first, -8.7 kcal/M for the second.

Compared with `CCc1c(Br)c(C)c(Oc2c(I)c(C)c(CC(N)C(=O)O)c(C)c2I)c(C)c1Br` (stereo unspecified), `CCc1cc(C)c(Oc2c(I)c(C)c(CC(N)C(=O)O)c(C)c2I)c(C)c1` (stereo unspecified) is higher in Delta G: -9.2 kcal/M for the first, -7.1 kcal/M for the second.

Compared with `CCc1cc(C)c(Oc2c(I)c(C)c(CC(=O)O)c(C)c2I)c(C)c1I`, `CCc1cc(C)c(Oc2cc(C)c(CC(N)C(=O)O)c(C)c2I)c(C)c1` (stereo unspecified) is higher in Delta G: -9.7 kcal/M for the first, -5.2 kcal/M for the second.
